{"source": "patent US4587245A", "about": "“Method of treating neuropsychic disturbances by benzodiazepine derivatives and composition therefor” (Sanofi, priority 1976, dated 1986)", "key": {"[1]": {"system": "central receptor site of the benzodiazepines", "assay": "Affinity for the central benzodiazepine receptor site, displacement of 3H-flunitrazepam in vitro", "assay_type": "binding", "conditions": "mice and rats", "description": "Studies were performed in mice and rats in order to evaluate the respective affinities of CM 6912 and of its metabolites on the central receptor site of the benzodiazepines."}, "[2]": {"assay": "Drug disposition studies after oral administration", "assay_type": "in vivo, several animal species and man", "text": "The originality of the mechanism of action of CM 6912 has been determined by the appearance profile of active metabolites after oral administration."}, "motility of mice": {"system": "motility of mice", "assay": "Spontaneous actography", "assay_type": "in vivo", "conditions": "oral", "description": "(§1) The products according to the invention were subjected to pharmacological tests in mice in order to determine their activity on the central nervous system. We shall indicate below the various tests to which the products were subjected.\n(§2) In all cases the products were administered orally.\n1. Spontaneous actography\nThe animals are placed in individual cages through which pass two beams which strike two photoelectric cells.\nDuring their movements, the animals (mice) intercept the beams and cause a recording on the impulse counters.\nThe variations in the motility of the treated animals are expressed in percentages relative to comparison animals; the sign-indicates a reduction (in percent) of the motility of the subjects."}, "[3]": {"system": "mice pulling themselves up on a horizontal bar", "assay": "Traction test", "assay_type": "in vivo", "conditions": "Mus musculus, oral, 50% of mice can no longer pull themselves up", "description": "as §1, §2\nThis consists of observing whether the animals (mice) are capable of pulling themselves up on a horizontal bar gripped by the front paws.\nThe results are expressed as the 50% effective dose (ED50), which is the dose (in mg/kg) for which 50% of the mice can no longer pull themselves up."}, "equilibration of mice": {"system": "equilibration of mice", "assay": "Rotating rod test: equilibration", "assay_type": "in vivo", "conditions": "Mus musculus, oral, 50% of mice fall", "description": "as §1, §2\n3. Rotating rod test: equilibration\nThe results are expressed as the 50% effective dose (ED50) which is the dose (in mg/kg) for which 50% of the mice fall during the test."}, "[4]": {"system": "pentylenetetrazol (cardiazol) convulsions in mice", "assay": "Anti-convulsive activity in relation to cardiazol", "assay_type": "in vivo", "conditions": "Mus musculus, oral, cardiazol 125 mg/kg intraperitoneally, protects 50% of animals, read-out: Anti-convulsive action Cardiazol ED50", "description": "as §1, §2\nAnti-convulsive activity in relation to cardiazol\nWhen administered intraperitoneally at a dose of 125 mg/kg, pentylenetetrazol (or cardiazol) causes the appearance of lethal convulsions in 100% of the mice treated.\nThe active products administered orally prior to the cardiazol oppose the appearance of the convulsions and possibly allow the test animals to survive.\nThe results are expressed as the ED50, that is to say as the dose (in mg/kg) which protects 50% of the animals."}, "[5]": {"system": "electric shock convulsions in mice", "assay": "Anti-convulsive activity in relation to electric shock", "assay_type": "in vivo", "conditions": "Mus musculus, oral, treated 1 hour beforehand, 12.5 V, 0.5 second, read-out: Anti-convulsive action Electric shock ED50", "description": "as §1, §2\nAnti-convulsive activity in relation to electric shock\nAn alternating current of 12.5 V is applied for 0.5 second by means of corneal electrodes to batches of 12 mice treated 1 hour beforehand with the product to be studied. The untreated mice subjected to this electric shock undergo a convulsion of the tonic type."}, "mice [6]": {"system": "mice", "assay": "Anxiolytic activity: 4 plate test", "assay_type": "in vivo", "conditions": "oral, 45 minutes after administration, lowest dose with significant effect", "description": "as §1, §2\nAnxiolytic activity: 4 plate test\nThe device is a parllelopiped chamber of which the floor consists of 4 metal plates of equal area. The experimenter can create a difference of potential which corresponds to a current of intensity 0.35 mA for a duration of 0.2 second, between each plate. Each time a mouse passes from one plate to the other, it receives an electric shock.\nThe anxiolytic agents cause an indifference to these electric shock and as a result the treated mice cross from one plate to another more frequently than the comparison mice. 45 minutes after administration of the product to be studied, the mice are placed in the chamber for 1 minute and the number of shocks received is measured and compared with the number of shocks received by the comparison animals. The results are expressed as a percentage increase in the number of shocks received by the treated animals relative to the comparison animals (which amounts to a percentage effect for a given dose), or as a threshold dose (TD) which is the lowest dose which produces a significant effect."}, "mice [7]": {"system": "mice", "assay": "Toxicity", "assay_type": "in vivo", "conditions": "oral", "description": "as §1, §2\nFinally, for certain products, the LDo in mg/kg (for oral administration) has been provided."}, "rats": {"system": "rats", "assay": "Approach-avoidance conflict procedure in Skinner boxes (dissociation of anxiolytic and sedative activities)", "assay_type": "in vivo, male Wistar rats", "conditions": "intraperitoneal; for ED50: Rattus norvegicus, ip, 0.5 h, 30 minutes before the test", "description": "Male Wistar rats are trained in Skinner boxes (Campden) in an approach-avoidance conflict procedure (Davidson and Cook, Psychopharmacologia 1969, 15, 159). The session lasts 30 minutes and consists of a multiple VI 30 sec/FR 3 schedule (sequence: 10 minutes VI+2 minutes FR+10 minutes VI+2 minutes FR+6 minutes VI). During the conflict periods, signalled by a light cue every 3d press delivers simultaneously a pellet and an electric shock. […] Lever presses are authomatically recorded by a microcomputer: non punished responses during the VI schedule and punished responses during the FR periods. A representative benzodiazepine of formula (I) above (R3=ethyl, R4=F; Code No. CM 6912) has been injected by intraperitoneal route 30 minutes before the test."}, "man": {"system": "man", "assay": "Therapeutic evaluation in man", "assay_type": "in vivo", "conditions": "daily dosage of 2 mg", "description": "For this purpose, a pharmaceutical composition containing 2 mg of CM 6912 is administered once a day."}, "[8]": {"conditions": "oral, several animal species and man"}, "[9]": {"conditions": "dose 0.5 mg/kg, minus sign = reduction"}}, "note": "Where two headings read alike, the source gives them in different places."}
{"compound": "O=C1Nc2ccc(Cl)cc2C(c2ccccc2F)=NC1O", "note": "(stereo not shown) [3-hydroxy analog]", "values": [{"measurement": "displacement of 3H-flunitrazepam in vitro", "setting": "[1]", "result": "very potent"}]}
{"compound": "O=C(O)C1N=C(c2ccccc2F)c2cc(Cl)ccc2NC1=O", "note": "(stereo not shown) [free acid]", "values": [{"measurement": "activity of metabolite", "setting": "[2]; metabolite of CM 6912", "result": "inactive metabolite"}, {"measurement": "displacement of 3H-flunitrazepam in vitro", "setting": "[1]", "result": "weak displacers"}]}
{"compound": "CCOC(=O)C1N=C(c2ccccc2F)c2cc(Cl)ccc2NC1=O", "note": "(stereo not shown) [CM 6912, 7-chloro-3-ethoxycarbonyl-5-(2-fluorophenyl)-2-oxo-2,3-dihydro-1H-benzodiazepine-1,4]", "values": [{"measurement": "Actography, variation in motility relative to comparison animals", "setting": "motility of mice; dose 33 mg/kg, minus sign = reduction", "result": -23, "unit": "%"}, {"measurement": "ED50", "setting": "[3]", "result": 10, "unit": "mg/kg"}, {"measurement": "ED50", "setting": "equilibration of mice", "result": 5, "unit": "mg/kg"}, {"measurement": "ED50", "setting": "[4]", "result": 0.6, "unit": "mg/kg"}, {"measurement": "ED50", "setting": "[5]", "result": 12, "unit": "mg/kg"}, {"measurement": "Anxiolysis 4 plates threshold dose (TD)", "setting": "mice [6]", "result": 1}, {"measurement": "Toxicity LD.", "setting": "mice [7]", "result": "> 300", "unit": "mg/kg"}, {"measurement": "ED50", "setting": "rats; read-out: anxiolytic activity ED50 (increase in punished responding)", "result": 1.66, "unit": "mg/kg"}, {"measurement": "ED50", "setting": "rats; read-out: sedative activity ED50 (decrease in unpunished responding)", "result": 16, "unit": "mg/kg"}, {"measurement": "dissociation of the anxiolytic and sedative activities", "setting": "rats", "result": "statistically significant"}, {"measurement": "adverse effect in man", "setting": "man", "result": "without adverse effect"}, {"measurement": "anxiolytic properties in man", "setting": "man", "result": "potent anxiolytic properties"}, {"measurement": "biotransformation", "setting": "[2]; [8]", "result": "biotransformed into the free acid"}, {"measurement": "stability in the gastro-intestinal tract", "setting": "[2]; [8]", "result": "stable in the gastro-intestinal tract"}, {"measurement": "displacement of 3H-flunitrazepam in vitro", "setting": "[1]", "result": "weak displacers"}]}
{"compound": "CCOC(=O)C1N=C(c2ccccc2)c2cc(Cl)ccc2NC1=O", "note": "(stereo not shown) [CM 4279, reference compound]", "values": [{"measurement": "Actography, variation in motility relative to comparison animals", "setting": "motility of mice; dose 100 mg/kg", "result": "none"}, {"measurement": "ED50", "setting": "[3]", "result": 100, "unit": "mg/kg"}, {"measurement": "ED50", "setting": "equilibration of mice", "result": "> 100", "unit": "mg/kg"}, {"measurement": "ED50", "setting": "[4]", "result": 9, "unit": "mg/kg"}, {"measurement": "ED50", "setting": "[5]", "result": "> 500", "unit": "mg/kg"}, {"measurement": "Anxiolysis 4 plates threshold dose (TD)", "setting": "mice [6]", "result": 10}, {"measurement": "Toxicity LD.", "setting": "mice [7]", "result": "> 300", "unit": "mg/kg"}]}
{"compound": "COC(=O)C1N=C(c2ccccc2Cl)c2cc(Cl)ccc2NC1=O", "note": "(stereo not shown) [compound 7442]", "values": [{"measurement": "Actography, variation in motility relative to comparison animals", "setting": "motility of mice; [9]", "result": -57, "unit": "%"}, {"measurement": "ED50", "setting": "[3]", "result": 5, "unit": "mg/kg"}, {"measurement": "ED50", "setting": "equilibration of mice", "result": 8, "unit": "mg/kg"}, {"measurement": "ED50", "setting": "[4]", "result": 0.4, "unit": "mg/kg"}, {"measurement": "ED50", "setting": "[5]", "result": 32, "unit": "mg/kg"}, {"measurement": "Anxiolysis 4 plates threshold dose (TD)", "setting": "mice [6]", "result": 0.1}, {"measurement": "Toxicity LD.", "setting": "mice [7]", "result": "> 300", "unit": "mg/kg"}]}
{"compound": "O=C1CN=C(c2ccccc2F)c2cc(Cl)ccc2N1", "note": "[de-carbethoxy analog]", "values": [{"measurement": "displacement of 3H-flunitrazepam in vitro", "setting": "[1]", "result": "very potent"}]}
{"compound": "CCOC(=O)C1N=C(c2ccccc2Cl)c2cc(Cl)ccc2NC1=O", "note": "(stereo not shown) [CM 7101, 7-chloro-3-ethoxycarbonyl-5-(2-chlorophenyl)-2-oxo-2,3-dihydro-1H-benzodiazepine-1,4]", "values": [{"measurement": "Actography, variation in motility relative to comparison animals", "setting": "motility of mice; [9]", "result": -58, "unit": "%"}, {"measurement": "ED50", "setting": "[3]", "result": 6, "unit": "mg/kg"}, {"measurement": "ED50", "setting": "equilibration of mice", "result": 6, "unit": "mg/kg"}, {"measurement": "ED50", "setting": "[4]", "result": 0.75, "unit": "mg/kg"}, {"measurement": "ED50", "setting": "[5]", "result": 12, "unit": "mg/kg"}, {"measurement": "Anxiolysis 4 plates threshold dose (TD)", "setting": "mice [6]", "result": 0.5}, {"measurement": "Toxicity LD.", "setting": "mice [7]", "result": "> 300", "unit": "mg/kg"}]}
